Experiments:
[1] = system: KPMM2, a human myeloma cell line; experiment: Human myeloma cell-implanted SCID mouse system (Example 2): survival, disease-free ratio, serum M protein; type: in vivo; settings: for Life-elongation ratio* (%): 100 × (drug administration group/drug non-administration group); for Survival period: mean ± standard error; for None disease ratio: survival ratio without disease on day 120
Excerpt: (§1) For evaluation of antitumor activity, a xenograft model was used. Thus, KPMM2, a human myeloma cell line derived from ascites of a patient with multiple myeloma was implanted to a male SCID mouse (FOX CHASE C. B17/Icr-Scid Jcl, purchased from Nippon Klea) via the tail vein. At this time, the tumor cells grow in the bone marrow and come to produce myeloma protein (M protein) in the peripheral blood. Furthermore, this model system is very close to an actual clinical condition in that it develops major symptoms of multiple myeloma in humans such as bone disorders, elevated blood calcium, and the like.
Single cell suspension of myeloma cells for implantation was prepared by passing through a mesh the well minced KPMM2 cells that have been maintained in vivo. Cell density was adjusted to 3×10^7/ml, which was implanted at 0.2 ml per mouse via the tail vein ([…]). The day when the cells were implanted was set at day 0.
This was given to mice at 0.2 ml per animal via the tail vein on day 8 (1 mg per mouse).
Melphalan (L-PAM, manufactured by Sigma Chemical Co.) that was suspended at 0.3 or 0.1 mg/ml in 0.2% CMC (carboxymethylcellulose) solution in water was used. This was given orally at 0.1 ml per 10 g body weight of mouse (3 or 1 mg/kg weight) for 5 consecutive days starting on day 1.
The experiment was carried out on the following six groups: (1) the melphalan and antibody non-administration group; (2) the 1 mg/kg melphalan single-drug administration group; (3) the 3 mg/kg melphalan single-drug administration group; (4) antibody single-drug administration group; (5) the 1 mg/kg melphalan and antibody combined administration group; and (6) the 3 mg/kg melphalan and antibody combined administration group. Group 1 included 9 mice, whereas each of the other groups included 7 mice. Furthermore, tumor was not implanted on mice of the same lineage and purchased on the same day, which were used as negative control for M protein detection.
Indices of the drug efficacy included the survival period, the survival ratio without disease on day 120, and the amount of M protein on day 30. For analysis using a survival curve, a generalized Wilcoxon's test (SPSS for windows ver. 6, SPSS inc.) was used. A significance level of 5% or lower was considered to be significant.
Serum M protein was detected as human IgG using the ELISA method. First, mouse serum was dispensed into a 96-well micro plate that had previously been coated with anti-human IgG antiserum and was allowed to stand. Then alkaline phosphatase-conjugated […] was bound thereto, and SIGMA104 phosphatase substrate was added for color development, absorbance of which was read using a microplate reader. M protein content in the serum was calculated using the standard curve obtained from normal human IgG.

human IL-6 receptor = target: T1, human IL-6 receptor (Homo sapiens, UniProt P08887); experiment: ELISA of binding to human IL-6 receptor
T1 sequence (P08887 20-468): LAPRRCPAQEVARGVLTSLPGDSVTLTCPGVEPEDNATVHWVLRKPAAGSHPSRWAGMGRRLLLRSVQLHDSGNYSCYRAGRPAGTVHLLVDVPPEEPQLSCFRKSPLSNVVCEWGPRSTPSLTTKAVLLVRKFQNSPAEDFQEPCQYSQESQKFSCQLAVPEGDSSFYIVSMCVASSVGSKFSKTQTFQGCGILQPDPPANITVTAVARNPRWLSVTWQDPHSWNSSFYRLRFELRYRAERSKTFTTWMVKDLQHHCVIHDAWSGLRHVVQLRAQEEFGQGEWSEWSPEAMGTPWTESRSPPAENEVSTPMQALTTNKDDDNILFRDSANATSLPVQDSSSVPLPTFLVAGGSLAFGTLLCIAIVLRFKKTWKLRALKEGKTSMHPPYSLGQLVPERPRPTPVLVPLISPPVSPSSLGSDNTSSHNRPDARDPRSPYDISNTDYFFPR
Excerpt: In order to express genes of L chain and H chain of the reshaped human PM-1 antibody thus constructed, DNA encoding the L chain or the H chain was separately inserted into a vector containing the human elongation factor 1α (HEF-1α) promoter, and a vector expressing the L chain or the H chain of the reshaped human PM-1 (hPM-1) antibody was constructed. By simultaneously inserting these two expression vectors into CHO cells, a cell line that produces reshaped human PM-1 antibody (hPM-1) was established.

[2] = Body weight change (toxicity) of myeloma-implanted mice, Example 2; type: in vivo, SCID mouse; settings: melphalan administration (FIG. 10)
Excerpt: as §1
With regard to anti-human IL-6 receptor antibody, a stock solution that had been preserved at 12.1 mg/ml was diluted in sterile phosphate buffer to make 5 mg/ml. This was given to mice at 0.2 ml per animal via the tail vein on day 8 (1 mg per mouse). The control group received sterile phosphate buffer containing no antibody in a similar manner.
Melphalan (L-PAM, manufactured by Sigma Chemical Co.) that was suspended at 0.3 or 0.1 mg/ml in 0.2% CMC (carboxymethylcellulose) solution in water was used. This was given orally at 0.1 ml per 10 g body weight of mouse (3 or 1 mg/kg weight) for 5 consecutive days starting on day 1. The control group received 0.2% CMC solution in water containing no melphalan in a similar manner. […]

[3] = Body weight change (toxicity) of myeloma-implanted mice, Example 3; type: in vivo, SCID mouse; settings: melphalan administration (FIG. 16)
Method: For evaluation of antitumor effects, a xenograft model animal that was produced by implanting KPMM2 cells via the tail vein was used as in Working example 2. Thus, single-cell suspensions which were prepared by passing through a mesh KPMM2 cells that were minced after having been maintained in vivo were implanted at 0.2 ml per mouse via the tail vein (6×10^6 cells per mouse). The day when the cells were implanted was set at day 0.
With regard to anti-human IL-6 receptor antibody hPM-1, a stock solution that had been preserved at 6.57 mg/ml was diluted in sodium phosphate buffer to make each solution of 5, 1, 0.2, and 0.04 mg/ml. They were given to mice at 0.1 ml per 10 g body weight of mouse via the tail vein on day 14 to create the 50, 10, 2, and 0.4 mg/kg administration groups. The control group received the same buffer without antibody in a similar manner. […]
The experiment was carried out on the following 10 groups: (A) the melphalan and the antibody non-administration group; (B) the melphalan single-drug administration group; (C) the each dose of antibody single-drug administration group , 4 groups (50, 10, 2, 0.4 mg/kg weight); and, (D) the melphalan and the each dose of antibody combined administration group, 4 groups (50, 10, 2, 0.4 mg/kg weight). […] The amount of M protein was calculated as described in Example 2.

[4] = hPM-1 1 mg per mouse via the tail vein on day 8, CMC control
[5] = melphalan 1 mg/kg orally, 5 days from day 1, no antibody
[6] = melphalan 3 mg/kg orally, 5 days from day 1, no antibody

Row | Molecule | life elongation effect as compared to the non-administration group ([1]; antibody single-drug administration, 1 mg per mouse on day 8 (FIG. 7)) | Life-elongation ratio* (%) [1, 4] [%] | Survival period [1, 4] | None disease ratio ([1]; hPM-1 1 mg per mouse on day 8, CMC control) | ability to bind to human IL-6 receptor (human IL-6 receptor) | life elongation effect as compared to the non-administration group ([1]; 1 mg/ml melphalan administration group (FIG. 7)) | life elongation effect as compared to the non-administration group ([1]; 3 mg/kg melphalan single-drug administration (FIG. 9)) | Survival period ([1]; melphalan 1 mg/kg orally, 5 consecutive days from day 1, no antibody) | Life-elongation ratio* (%) [1, 5] [%] | Survival period ([1]; melphalan 3 mg/kg orally, 5 consecutive days from day 1, no antibody) | Life-elongation ratio* (%) [1, 6] [%] | None disease ratio [1, 5] | None disease ratio [1, 6] | toxicity (inhibition of body weight gain) [2] | toxicity (inhibition of body weight gain) [3]
1 | hPM-1: reshaped human PM-1 antibody: CDRs of mouse anti-IL-6 receptor antibody PM-1 grafted to human antibody, produced in CHO cells | no life elongation effect | 118 | 55.1 ± 5.2 | 0/7 | confirmed by ELISA | – | – | – | – | – | – | – | – | – | –
2 | NC(Cc1ccc(N(CCCl)CCCl)cc1)C(=O)O (stereo not drawn) [melphalan] | – | – | – | – | – | no life elongation effect | significant life elongation effect | 47.3 ± 3.1 | 101 | 84.1 ± 9.1 | 175 | 0/7 | 2/7 | caused toxicity in mice and inhibited body weight gain | caused toxicity to mice and inhibited body weight gain
